Assays:
[1] = molecular target: T1, COX1 (Prostaglandin G/H synthase 1) (Ovis aries, UniProt P05979); assay: Inhibition of ovine COX1 assessed as reduction in PGF2alpha level at 100 uM using arachidonic acid as substrate preincubated for 10 mins followed by substrate addition by ELISA relative to control; settings: sheep, ovine COX1 enzyme, probe arachidonic acid
T1 sequence (P05979 whole entry): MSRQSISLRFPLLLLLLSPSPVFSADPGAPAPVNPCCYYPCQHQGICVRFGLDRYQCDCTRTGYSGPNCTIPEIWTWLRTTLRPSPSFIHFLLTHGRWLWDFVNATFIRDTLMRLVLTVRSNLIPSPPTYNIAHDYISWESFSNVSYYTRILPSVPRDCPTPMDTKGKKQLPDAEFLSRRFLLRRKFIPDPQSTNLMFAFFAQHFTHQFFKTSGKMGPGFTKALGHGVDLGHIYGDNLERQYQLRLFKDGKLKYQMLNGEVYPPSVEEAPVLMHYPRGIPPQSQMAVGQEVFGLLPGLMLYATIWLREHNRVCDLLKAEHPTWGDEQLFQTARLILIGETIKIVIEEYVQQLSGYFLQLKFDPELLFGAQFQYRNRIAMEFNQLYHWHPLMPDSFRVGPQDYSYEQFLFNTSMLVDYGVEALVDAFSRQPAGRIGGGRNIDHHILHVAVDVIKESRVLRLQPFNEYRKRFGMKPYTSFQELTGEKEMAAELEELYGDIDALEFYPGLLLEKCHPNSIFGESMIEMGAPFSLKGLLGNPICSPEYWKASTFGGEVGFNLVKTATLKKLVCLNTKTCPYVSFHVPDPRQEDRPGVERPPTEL

[2] = molecular target: T2, Prostaglandin G/H synthase 2 (Homo sapiens) (UniProt P35354); assay: Inhibition of human COX2 assessed as reduction in PGF2alpha level at 100 uM using arachidonic acid as substrate preincubated for 10 mins followed by substrate addition by ELISA relative to control
T2 sequence (whole entry): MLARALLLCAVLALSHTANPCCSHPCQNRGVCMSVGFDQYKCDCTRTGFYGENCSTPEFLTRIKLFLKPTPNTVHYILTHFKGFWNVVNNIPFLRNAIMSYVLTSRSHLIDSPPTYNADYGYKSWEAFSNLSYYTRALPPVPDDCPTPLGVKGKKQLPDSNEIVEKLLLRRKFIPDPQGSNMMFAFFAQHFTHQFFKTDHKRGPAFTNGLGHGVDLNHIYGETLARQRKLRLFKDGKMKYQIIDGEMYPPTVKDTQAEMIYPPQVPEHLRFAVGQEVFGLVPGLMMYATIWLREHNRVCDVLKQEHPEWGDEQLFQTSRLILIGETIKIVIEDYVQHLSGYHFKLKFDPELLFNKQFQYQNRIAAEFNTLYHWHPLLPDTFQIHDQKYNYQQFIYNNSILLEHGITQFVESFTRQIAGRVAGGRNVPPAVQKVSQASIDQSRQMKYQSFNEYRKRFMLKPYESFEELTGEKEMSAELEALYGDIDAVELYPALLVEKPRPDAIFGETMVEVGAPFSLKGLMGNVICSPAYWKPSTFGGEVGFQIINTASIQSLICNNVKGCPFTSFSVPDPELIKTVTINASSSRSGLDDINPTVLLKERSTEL

MCF7 [3] = assay: Antiproliferative activity against human MCF7 cells after 72 hrs by MTT assay; settings: MCF7, 72 h
[4] = molecular target: T3, Prostaglandin G/H synthase 1 (Ovis aries, UniProt P05979); assay: Inhibition of ovine COX1 assessed as reduction in PGF2alpha level using arachidonic acid as substrate preincubated for 10 mins followed by substrate addition by ELISA
T3 sequence (P05979 whole entry): T1 sequence (P05979 whole entry)

[5] = Selectivity index, ratio of IC50 for ovine COX1 to IC50 for human COX2
[6] = molecular target: T4, Prostaglandin G/H synthase 2 (Homo sapiens, UniProt P35354); assay: Inhibition of human COX2 assessed as reduction in PGF2alpha level using arachidonic acid as substrate preincubated for 10 mins followed by substrate addition by ELISA
T4 sequence (P35354 whole entry): T2 sequence (whole entry)

[7] = molecular target: T2, Prostaglandin G/H synthase 2 (Homo sapiens); assay: Inhibition of COX2 in human MCF7 cells assessed as reduction in PGE2 level after 72 hrs by ELISA; format: cell-based
[8] = molecular target: T2, Prostaglandin G/H synthase 2 (Homo sapiens); assay: Inhibition of COX2 in human MCF7 cells assessed as reduction in PGE2 level at 12.5 uM after 72 hrs by ELISA relative to control; format: cell-based
[9] = Solubility of the compound in DMEM culture medium at >12.5 uM; format: physicochemical
[10] = molecular target: T2, Prostaglandin G/H synthase 2 (Homo sapiens); assay: Inhibition of COX2 in human MCF7 cells assessed as reduction in PGE2 level at 6.25 uM after 72 hrs by ELISA relative to control; format: cell-based
MCF7 [11] = assay: Antiproliferative activity against human MCF7 cells up to 100 uM after 72 hrs by MTT assay relative to control; format: functional

SMILES	inhibition at 100 µM [1] [%]	inhibition [2] [%]	also measured
O=[N+]([O-])c1ccc(/C=C/c2ccccc2)cc1	16.3	35	
O=[N+]([O-])c1ccc(/C=C/c2ccc(OCc3ccccc3)cc2)cc1	3.36	15.7	
Cc1ccc(-c2cc(C(F)(F)F)nn2-c2ccc(S(N)(=O)=O)cc2)cc1 [CELECOXIB]			IC50 (MCF7 [3]): 49.7 µM
CC(=O)Oc1ccc(/C=C/c2ccccc2)cc1	20.5	39.9	
COC(=O)COc1ccc(/C=C/c2ccc(OCC(=O)OC)cc2)cc1	28.5	44.5	
COC(=O)COc1ccc(/C=C/c2ccc([N+](=O)[O-])cc2)cc1	59.6	66.3	IC50 [4]: 40.8 µM; Ratio IC50 [5]: 4.13; IC50 [6]: 7.46 µM
Oc1ccc(/C=C/c2cc[n+](Cc3ccc(Cl)cc3)cc2)cc1	15.7	5.38	
Oc1ccc(/C=C/c2cc[n+](Cc3cccc(Cl)c3)cc2)cc1	11.2	21.9	
O=[N+]([O-])c1ccc(/C=C/c2cc(O)c(O)c(O)c2)cc1			IC50 [4]: 17.5 µM; inhibition [7]: Dose-dependent effect; inhibition [8]: 33.9%; Ratio IC50 [5]: 62.8; solubility [9]: Insoluble; inhibition [10]: 24.1%; IC50 [6]: 0.279 µM; Activity (MCF7 [11]): 30%
CCOc1ccc(/C=C/c2ccccc2)cc1	32.3	40.8	
COc1cc(/C=C/c2ccc([N+](=O)[O-])cc2)cc(OC)c1OC			IC50 [4]: 2.67 µM; Ratio IC50 [5]: 1.23; IC50 [6]: 2.17 µM; Activity (MCF7 [11]): 30%
O=[N+]([O-])c1ccc(/C=C/c2ccc(O)cc2)cc1	22.2	37.1	
CCOc1ccc(/C=C/c2ccc([N+](=O)[O-])cc2[N+](=O)[O-])cc1	14.1	40.4	
CC(=O)Oc1ccc(/C=C/c2ccc(OC(C)=O)cc2)cc1	3.16	23.4	
CCOc1cccc(/C=C/c2ccc([N+](=O)[O-])cc2)c1	2.42	23.4	
CCOc1ccc(/C=C/c2ccc(Cl)cc2)cc1	39.2	12.3	
Oc1cccc(/C=C/c2ccncc2)c1	23.1	20.4	
CCOc1ccc(/C=C/c2ccc([N+](=O)[O-])cc2)cc1	54.6	77.4	IC50 [4]: 85 µM; Ratio IC50 [5]: 21.2; IC50 [6]: 4.02 µM
Oc1ccc(/C=C/c2ccc(Br)cc2)cc1	6.8	14.3	
Oc1ccc(/C=C/c2ccncc2)cc1	17.3	8.88	
Oc1ccc(/C=C/c2ccc(Cl)cc2)cc1	9.64	3.73	
CC(=O)Oc1cccc(/C=C/c2ccc([N+](=O)[O-])cc2[N+](=O)[O-])c1	28.3	34.1	
CCOc1cccc(/C=C/c2ccc([N+](=O)[O-])cc2[N+](=O)[O-])c1	15.4	27.5	
COC(=O)COc1ccc(/C=C/c2ccc(Cl)cc2)cc1	59.3	71.8	IC50 [4]: 41 µM; Ratio IC50 [5]: 5.45; IC50 [6]: 7.52 µM
O=[N+]([O-])c1ccc(/C=C/c2ccc(O)cc2)c([N+](=O)[O-])c1	6.09	29	
Oc1ccc(/C=C/c2cc[n+](Cc3ccccc3Cl)cc2)cc1	1.57	10.2	
Oc1ccccc1/C=C/c1ccncc1	9.71	8.56	
Oc1ccc(/C=C/c2ccc(O)cc2)cc1 [TRANS-4,4'-DIHYDROXYSTILBENE]	4.92	11.1	
COc1ccc(/C=C/c2ccc([N+](=O)[O-])cc2)cc1OC			IC50 [4]: 0.659 µM; Ratio IC50 [5]: 0.14; IC50 [6]: 4.69 µM

Source: ChEMBL document CHEMBL4177711, “Synthesis, in vitro and in silico evaluation of novel trans-stilbene analogues as potential COX-2 inhibitors” (Bioorg Med Chem, 2018)
